Assay results as given in patent publication US5270344A, “Method of treating a systemic disorder using trioxolane and diperoxide compounds” (priority 1992, dated 1993).
Converted amounts (≈) assume the structure as drawn. Like-named read-outs stand apart in the source and are kept apart here.

How the values were obtained:
[1] = test system: Leishmania major; parameters: species or system balb/c mice; conditions: mouse, in vivo
[2] = test system: S. aureus; format: cell-based, Staphylococcus aureus
[3] = test system: S. epidermidis; format: cell-based, Staphylococcus epidermidis
[4] = test system: N. gonorrhoea; format: cell-based, Neisseria gonorrhoea
[5] = test system: Salmonella; format: cell-based, Salmonella spp.
[6] = test system: Shigella; format: cell-based, Shigella spp.
[7] = test system: EPEC/ETEC; format: cell-based, enteropathogenic/enterotoxigenic Escherichia coli
[8] = test system: Pseudomonas; format: cell-based, Pseudomonas spp.
[9] = test system: Kiebisella; format: cell-based, Klebsiella spp.
[10] = test system: E. coli; format: cell-based
[11] = test system: Archromobacter; format: cell-based, Achromobacter
[12] = test system: C. albicans; format: cell-based, Candida albicans
[13] = test system: Tri. violaceum; format: cell-based, Trichophyton violaceum
[14] = test system: Tri. canis; format: cell-based, Trichophyton canis
[15] = test system: Cryptococcus; format: cell-based, Cryptoccus spp.
[16] = test system: Ph. verrucose; format: cell-based, Phialophora verrucose
[17] = test system: Penicillium; format: cell-based, Penicillium spp.
[18] = test system: S. aureus; format: cell-based, Staphylococcus aureus; remark: listed apart in the source
[19] = test system: EPEC/ETEC; format: cell-based, enteropathogenic/enterotoxigenic Escherichia coli; remark: listed apart in the source
[20] = test system: Salmonella; format: cell-based, Salmonella spp.; remark: listed apart in the source
[21] = test system: Shigella; format: cell-based, Shigella spp.; remark: listed apart in the source
[22] = test system: Pseudomonas; format: cell-based, Pseudomonas spp.; remark: listed apart in the source
[23] = test system: Candida; format: cell-based, Candida spp.
[24] = test system: S. aureus; format: cell-based, Staphylococcus aureus; remark: listed apart in the source
[25] = test system: EPEC/ETEC; format: cell-based, enteropathogenic/enterotoxigenic Escherichia coli; remark: listed apart in the source
[26] = test system: Salmonella; format: cell-based, Salmonella spp.; remark: listed apart in the source
[27] = test system: Shigella; format: cell-based, Shigella spp.; remark: listed apart in the source
[28] = test system: Pseudomonas; format: cell-based, Pseudomonas spp.; remark: listed apart in the source
[29] = test system: Candida; format: cell-based, Candida spp.; remark: listed apart in the source
[30] = test system: S. aureus; format: cell-based, Staphylococcus aureus; remark: listed apart in the source
[31] = test system: Salmonella; format: cell-based, Salmonella spp.; remark: listed apart in the source
[32] = test system: Shigella; format: cell-based, Shigella spp.; remark: listed apart in the source
[33] = test system: EPEC/ETEC; format: cell-based, enteropathogenic/enterotoxigenic Escherichia coli; remark: listed apart in the source
[34] = test system: Pseudomonas; format: cell-based, Pseudomonas spp.; remark: listed apart in the source
[35] = test system: Candida; format: cell-based, Candida spp.; remark: listed apart in the source
[36] = test system: Myeloma cell line (×63 balb/c line); format: cell-based, balb/c (mouse)
[37] = test system: human spermatozoa; format: cell-based
[38] = test system: commonly encountered microorganisms; format: cell-based, bacteria and fungi
[39] = test system: lymphocytes; parameters: species or system Balb/c mice; conditions: mouse, in vivo
[40] = test system: Leishmania donova; parameters: species or system Balb/c mice; conditions: mouse, in vivo
[41] = rabbit, in vivo
Procedure: Six healthy New Zealand White rabbits were selected for study. The rabbits' eyes were judged free of irritation prior to the study by examining with a pen light and under UV light after installation of 2% fluorescein stain. A 1% solution of the trioxolane or diperoxide derivative of linalool was prepared in isopropyl myristate. A 0.1 ml portion of this test solution was instilled into the lower conjunctival sac of one eye of each rabbit. The lids were held closed for one second. The opposite eye of each rabbit received 0.1 ml of the isopropyl myristate, as control. […] At 24, 48, and 72 hours post dosing, the eyes were examined with a pen light and re-examined with UV light following fluorescein staining of the cornea.

O.O.O.O.O.O.O.O.O.O=C([O-])[C@@H]1[O][Sb](=[O])([O][Sb]2(=[O])[O][C@H]([C@H](O)CO)[C@H](O)[C@H](C(=O)[O-])[O]2)[O][C@H]([C@H](O)CO)[C@@H]1O.[Na+].[Na+].[Na+] (some centres unmarked) [Pentostam, reference compound]
Dead, Day 14 ([1]; ip): 1 dead
Lesions, Day 0 ([1]; ip): Large lesions
Lesions, Day 14 ([1]; ip): Large lesions breaking

CCC1OOC(CCO)O1 (stereo not drawn) [Trioxolane derivative of cis 3-hexene-1-ol]
MIC [2]: 250 µg/mL (≈ 1690 µM)
lowest concentration inhibiting at least one isolate [2]: 0.031 mg/mL
MIC [3]: 25 µg/mL (≈ 169 µM)
lowest concentration inhibiting at least one isolate [3]: 0.031 mg/mL
MIC [4]: 3.5 µg/mL (≈ 23.6 µM)
lowest concentration inhibiting at least one isolate [4]: 0.0019 mg/mL
MIC [5]: 7 µg/mL (≈ 47.2 µM)
MIC [6]: 250 µg/mL (≈ 1690 µM)
MIC [7]: 250 µg/mL (≈ 1690 µM)
MIC [8]: 7 µg/mL (≈ 47.2 µM)
MIC [9]: 7 µg/mL (≈ 47.2 µM)
MIC [10]: 120 µg/mL (≈ 810 µM)
MIC [11]: 60 µg/mL (≈ 405 µM)
MIC [12]: 31 µg/mL (≈ 209 µM)
MIC [13]: 150 µg/mL (≈ 1010 µM)
MIC [14]: 150 µg/mL (≈ 1010 µM)
MIC [15]: 15 µg/mL (≈ 101 µM)
MIC [16]: 150 µg/mL (≈ 1010 µM)
MIC [17]: 310 µg/mL (≈ 2090 µM)
MIC agar [18]: 120 µg/mL (≈ 810 µM)
MIC agar [19]: 31 µg/mL (≈ 209 µM)
MIC agar [20]: 7 µg/mL (≈ 47.2 µM)
MIC agar [21]: 7 µg/mL (≈ 47.2 µM)
MIC agar [22]: 7 µg/mL (≈ 47.2 µM)
MIC agar [23]: 31 µg/mL (≈ 209 µM)
MIC broth [24]: 620 µg/mL (≈ 4180 µM)
MIC broth [25]: 620 µg/mL (≈ 4180 µM)
MIC broth [26]: 150 µg/mL (≈ 1010 µM)
MIC broth [27]: 620 µg/mL (≈ 4180 µM)
MIC broth [28]: 620 µg/mL (≈ 4180 µM)
MIC broth [29]: 310 µg/mL (≈ 2090 µM)
MBC [30]: 1250 µg/mL (≈ 8440 µM)
MBC [31]: 2500 µg/mL (≈ 16900 µM)
MBC [32]: 1250 µg/mL (≈ 8440 µM)
MBC [33]: 1250 µg/mL (≈ 8440 µM)
MBC [34]: 1250 µg/mL (≈ 8440 µM)
MBC [35]: 1250 µg/mL (≈ 8440 µM)
Time to kill myeloma cell line [36]: ≤ 48 h
Time to kill human spermatozoa [37]: ≤ 1 min
Activity compared with Geraniol trioxolane [38]: more active than Geraniol trioxolane
Activity compared with conventional drugs [38]: more active than conventional drugs
Effect of water on direct bioactivity [38]: significantly reduces the direct bioactivity
New clones of lymphocytes in bone marrow [39]: increase in new clones of lymphocytes
Death, Day 14 [1]: No death
General health, Day 14 [1]: Animals healthy and active
Lesions, Day 0 [1]: Large lesions
Lesions, Day 14 [1]: Lesions small and dry
Dead, Day 14 ([1]; ip): 2 dead
Lesions, Day 0 ([1]; ip): Large lesions
Lesions, Day 14 ([1]; ip): Lesions scabbed
Palate involvement, Day 14 ([1]; ip): 2
Clearing parasites from the viscera [40]: perform better than Pentostam

linalool trioxolane
Ocular irritation [41]: non-irritant to ocular tissues of the rabbit
